{"source": "ChEMBL document CHEMBL5107961", "about": "“Design, synthesis, and biological evaluation of C6-difluoromethylenated epoxymorphinan Mu opioid receptor antagonists” (RSC Med Chem, 2022)", "target": "Mu-type opioid receptor (Homo sapiens, UniProt P35372)", "sequence (P35372 whole entry)": "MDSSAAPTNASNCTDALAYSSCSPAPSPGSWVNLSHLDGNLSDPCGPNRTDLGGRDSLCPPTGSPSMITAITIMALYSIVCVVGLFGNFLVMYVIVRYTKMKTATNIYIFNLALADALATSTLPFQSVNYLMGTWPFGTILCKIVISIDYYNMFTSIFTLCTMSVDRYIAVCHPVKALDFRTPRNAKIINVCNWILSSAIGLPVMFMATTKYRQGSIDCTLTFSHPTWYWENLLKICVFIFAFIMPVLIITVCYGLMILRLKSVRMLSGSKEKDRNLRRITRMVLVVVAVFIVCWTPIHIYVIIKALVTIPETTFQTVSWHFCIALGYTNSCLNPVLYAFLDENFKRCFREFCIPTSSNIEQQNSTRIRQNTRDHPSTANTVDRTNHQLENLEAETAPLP", "format": "functional, cell-based, CHO-K1", "description": "Antagonist activity at human MOR expressed in CHO-K1 cells assessed as reduction in fentanyl induced cAMP production incubated for 30 mins by Lance ultra cAMP assay"}
{"compound": "Oc1ccc2c3c1O[C@H]1C(=C(F)F)CC[C@@]4(O)[C@@H](C2)N(CC2CC2)CC[C@]314", "values": [{"measurement": "IC50", "value": 5.1, "unit": "nM"}]}
